Several values for one entry are separate records, joined by “and”; a condition that tells them apart may be missing. Identical values can stand only once.

Data on 19 compounds can be found in patent US10670605B2, “Cysteine reactive probes and uses thereof” (The Scripps Research Institute, priority 2015, dated 2020).

The target of assay [1] is T1, DDX59 C414 (Q5T1V6) (Homo sapiens, UniProt Q5T1V6).
T1 sequence (Q5T1V6 1-619): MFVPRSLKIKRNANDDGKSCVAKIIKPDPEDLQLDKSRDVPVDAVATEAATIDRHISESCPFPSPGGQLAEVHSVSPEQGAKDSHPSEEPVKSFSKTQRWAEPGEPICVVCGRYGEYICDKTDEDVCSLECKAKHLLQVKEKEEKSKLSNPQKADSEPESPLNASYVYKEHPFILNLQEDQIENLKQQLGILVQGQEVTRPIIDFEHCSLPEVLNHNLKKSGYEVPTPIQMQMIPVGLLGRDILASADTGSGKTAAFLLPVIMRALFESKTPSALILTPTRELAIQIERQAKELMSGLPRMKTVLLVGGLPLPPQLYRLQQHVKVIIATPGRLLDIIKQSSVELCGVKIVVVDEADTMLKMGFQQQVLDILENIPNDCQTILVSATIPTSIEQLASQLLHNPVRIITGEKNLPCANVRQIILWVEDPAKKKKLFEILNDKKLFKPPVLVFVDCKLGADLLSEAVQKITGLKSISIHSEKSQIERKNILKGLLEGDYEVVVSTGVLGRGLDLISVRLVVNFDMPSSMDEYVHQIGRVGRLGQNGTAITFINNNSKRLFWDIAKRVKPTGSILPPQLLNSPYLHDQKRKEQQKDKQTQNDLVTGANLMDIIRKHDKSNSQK
As to the kind of experiment: Competitive isoTOP-ABPP, cell lysates. The assay is classed as binding. The conditions noted are these: for isoTOP-ABPP reactivity profile ratio, Q5T1V6_C414 / isoTOP-ABPP reactivity ratio, Q5T1V6_C414: 500 μm.

The target in assay [2] is LRBA C2675 (P50851) (Homo sapiens, UniProt P50851). In words: Competitive isoTOP-ABPP, cell lysates. The assay is classed as binding. As to conditions: for isoTOP-ABPP reactivity ratio, P50851_C2675: 500 μm; for R value (DMSO/fragment): 500 μM, invitro, ramos.
Sequence of LRBA C2675 (P50851) (P50851 whole entry, the tested form may be a part): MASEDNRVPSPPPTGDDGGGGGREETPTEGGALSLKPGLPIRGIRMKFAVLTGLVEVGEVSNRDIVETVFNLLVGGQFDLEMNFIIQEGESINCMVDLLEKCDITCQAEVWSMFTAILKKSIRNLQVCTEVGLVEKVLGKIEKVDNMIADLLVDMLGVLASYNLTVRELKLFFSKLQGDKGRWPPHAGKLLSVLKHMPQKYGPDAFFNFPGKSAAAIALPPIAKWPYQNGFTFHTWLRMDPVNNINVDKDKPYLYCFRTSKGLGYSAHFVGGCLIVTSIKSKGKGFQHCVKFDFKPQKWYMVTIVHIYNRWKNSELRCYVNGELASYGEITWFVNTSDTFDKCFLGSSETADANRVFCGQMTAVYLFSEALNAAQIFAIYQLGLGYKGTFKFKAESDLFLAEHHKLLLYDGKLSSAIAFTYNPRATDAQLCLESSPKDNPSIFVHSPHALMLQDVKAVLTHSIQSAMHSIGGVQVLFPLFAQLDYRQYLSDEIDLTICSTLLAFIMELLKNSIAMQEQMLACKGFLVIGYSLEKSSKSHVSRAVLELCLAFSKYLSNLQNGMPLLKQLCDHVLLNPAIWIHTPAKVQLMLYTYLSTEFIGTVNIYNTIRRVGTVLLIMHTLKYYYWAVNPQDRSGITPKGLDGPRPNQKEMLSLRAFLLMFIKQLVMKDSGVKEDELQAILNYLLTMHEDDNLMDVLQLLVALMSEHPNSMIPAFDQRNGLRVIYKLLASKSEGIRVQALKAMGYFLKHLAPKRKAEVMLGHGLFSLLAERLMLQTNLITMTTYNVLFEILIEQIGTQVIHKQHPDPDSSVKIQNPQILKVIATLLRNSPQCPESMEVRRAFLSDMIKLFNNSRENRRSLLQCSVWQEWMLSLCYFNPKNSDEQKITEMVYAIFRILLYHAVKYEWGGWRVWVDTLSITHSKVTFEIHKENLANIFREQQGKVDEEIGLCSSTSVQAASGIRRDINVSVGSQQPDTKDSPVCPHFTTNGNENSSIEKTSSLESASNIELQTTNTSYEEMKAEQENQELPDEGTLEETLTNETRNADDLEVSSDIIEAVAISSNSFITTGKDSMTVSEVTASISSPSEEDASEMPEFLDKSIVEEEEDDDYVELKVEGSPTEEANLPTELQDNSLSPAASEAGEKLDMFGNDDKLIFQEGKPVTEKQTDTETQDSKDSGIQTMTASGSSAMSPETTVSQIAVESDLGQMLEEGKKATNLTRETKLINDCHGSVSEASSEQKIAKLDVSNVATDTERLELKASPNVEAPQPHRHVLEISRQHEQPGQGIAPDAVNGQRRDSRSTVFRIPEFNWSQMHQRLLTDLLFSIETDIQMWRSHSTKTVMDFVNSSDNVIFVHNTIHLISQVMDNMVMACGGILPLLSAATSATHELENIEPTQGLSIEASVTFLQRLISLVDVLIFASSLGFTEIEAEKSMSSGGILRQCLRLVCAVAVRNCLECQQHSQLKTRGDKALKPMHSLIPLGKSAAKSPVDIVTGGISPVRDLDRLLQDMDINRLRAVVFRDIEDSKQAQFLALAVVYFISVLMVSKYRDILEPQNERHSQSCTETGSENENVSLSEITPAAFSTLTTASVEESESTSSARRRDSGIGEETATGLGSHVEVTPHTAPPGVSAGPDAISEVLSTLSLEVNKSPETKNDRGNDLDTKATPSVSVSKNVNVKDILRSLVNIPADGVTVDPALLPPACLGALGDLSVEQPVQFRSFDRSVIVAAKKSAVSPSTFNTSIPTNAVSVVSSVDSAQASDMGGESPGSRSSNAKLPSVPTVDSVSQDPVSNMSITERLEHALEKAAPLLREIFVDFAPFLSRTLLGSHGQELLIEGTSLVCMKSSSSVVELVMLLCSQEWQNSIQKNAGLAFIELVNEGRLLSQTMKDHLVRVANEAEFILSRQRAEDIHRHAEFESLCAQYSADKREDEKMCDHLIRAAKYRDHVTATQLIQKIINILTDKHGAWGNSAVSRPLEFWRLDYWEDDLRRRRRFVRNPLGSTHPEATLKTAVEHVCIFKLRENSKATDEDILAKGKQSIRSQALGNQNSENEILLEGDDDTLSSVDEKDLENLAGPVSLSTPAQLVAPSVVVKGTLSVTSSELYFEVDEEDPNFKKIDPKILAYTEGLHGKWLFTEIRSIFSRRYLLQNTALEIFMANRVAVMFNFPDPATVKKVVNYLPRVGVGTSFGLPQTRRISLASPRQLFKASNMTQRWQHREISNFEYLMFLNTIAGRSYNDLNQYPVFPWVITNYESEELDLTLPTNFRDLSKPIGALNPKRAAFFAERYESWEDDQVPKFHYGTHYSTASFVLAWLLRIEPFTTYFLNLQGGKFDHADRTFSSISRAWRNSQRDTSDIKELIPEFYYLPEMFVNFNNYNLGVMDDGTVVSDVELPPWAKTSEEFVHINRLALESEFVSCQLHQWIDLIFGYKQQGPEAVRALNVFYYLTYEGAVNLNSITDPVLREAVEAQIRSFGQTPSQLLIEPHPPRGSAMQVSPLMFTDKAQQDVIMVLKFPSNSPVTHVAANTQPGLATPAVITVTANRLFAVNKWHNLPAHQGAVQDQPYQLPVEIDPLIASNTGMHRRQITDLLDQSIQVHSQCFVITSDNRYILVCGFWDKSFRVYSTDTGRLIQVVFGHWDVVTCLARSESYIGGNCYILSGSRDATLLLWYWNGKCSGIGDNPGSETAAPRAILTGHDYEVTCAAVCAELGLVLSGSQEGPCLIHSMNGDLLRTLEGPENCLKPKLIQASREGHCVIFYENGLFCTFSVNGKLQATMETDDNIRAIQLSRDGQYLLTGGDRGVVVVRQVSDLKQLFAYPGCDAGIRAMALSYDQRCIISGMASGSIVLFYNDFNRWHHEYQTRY
Assay [3] concerns the target cysteines in MDA-MB-231 and Ramos cells (Homo sapiens, UniProt P12268). As to the kind of experiment: Competitive isoTOP-ABPP in situ (fragment-treated cells). The assay is classed as cell-based. As to conditions: 200 μM, insitu.
In assay [4] the target is T2, ERCC3 C342 (P19447) (Homo sapiens, UniProt P19447).
T2 sequence (P19447 1-782): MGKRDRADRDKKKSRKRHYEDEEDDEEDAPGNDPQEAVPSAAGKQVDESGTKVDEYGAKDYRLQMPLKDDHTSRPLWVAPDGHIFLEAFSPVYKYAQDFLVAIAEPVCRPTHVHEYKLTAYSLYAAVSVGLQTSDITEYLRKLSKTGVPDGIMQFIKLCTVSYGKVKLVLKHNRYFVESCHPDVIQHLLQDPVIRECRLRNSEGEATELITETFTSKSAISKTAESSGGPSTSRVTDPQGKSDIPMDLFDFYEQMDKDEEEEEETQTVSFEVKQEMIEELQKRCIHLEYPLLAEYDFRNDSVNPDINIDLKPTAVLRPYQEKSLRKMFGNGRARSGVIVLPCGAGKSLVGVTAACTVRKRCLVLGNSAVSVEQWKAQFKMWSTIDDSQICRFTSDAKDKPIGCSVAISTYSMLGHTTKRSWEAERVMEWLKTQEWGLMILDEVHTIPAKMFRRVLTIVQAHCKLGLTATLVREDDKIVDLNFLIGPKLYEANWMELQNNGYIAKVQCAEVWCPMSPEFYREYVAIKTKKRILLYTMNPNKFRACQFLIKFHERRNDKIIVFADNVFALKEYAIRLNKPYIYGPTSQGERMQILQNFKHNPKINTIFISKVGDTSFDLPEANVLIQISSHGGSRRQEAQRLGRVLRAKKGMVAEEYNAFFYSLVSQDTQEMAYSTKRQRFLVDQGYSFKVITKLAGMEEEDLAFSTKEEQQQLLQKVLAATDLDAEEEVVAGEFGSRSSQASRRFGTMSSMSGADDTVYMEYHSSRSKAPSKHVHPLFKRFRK
As to the kind of experiment: Competitive isoTOP-ABPP, cell lysates. As to conditions: for R value (DMSO/fragment): in vitro, MDA-MB-231; for isoTOP-ABPP reactivity ratio, P19447_C342: 500 μm, in-vitro_ramos_231. The assay is classed as binding.
Protocol: TEV digests were pressure loaded onto a 250 μm (inner diameter) fused silica capillary column packed with C18 resin (Aqua 5 μm, Phenomenex). The samples were analyzed by multidimensional liquid chromatography tandem mass spectrometry (MudPIT), using an LTQ-Velos Orbitrap mass spectrometer (Thermo Scientific) coupled to an Agilent 1200-series quaternary pump. […] One full MS (MS1) scan (400-1800 m/z) was followed by 30 MS2 scans (ITMS) of the nth most abundant ions.
The ratios of heavy/light for each unique peptide (DMSO/compound treated; isoTOP-ABPP ratios, R values) were quantified with in-house CIMAGE software, using default parameters (3 ms s per peak and signal to noise threshold 2.5). Site-specific engagement of electrophilic fragments was assessed by blockade of IA-alkyne probe labeling. […] Ratios for unique peptide entries were calculated for each experiment; overlapping peptides with the same modified cysteine (e.g. different charge states, MudPIT chromatographic steps or tryptic termini) were grouped together and the median ratio was reported as the final ratio (R). The peptide ratios reported by CIMAGE were further filtered to ensure the removal or correction of low quality ratios in each individual dataset. The quality filters applied were the following: removal of half tryptic peptides; for ratios with high standard deviations from the median (90% of the median or above) the lowest ratio was taken instead of the median; removal of peptides with R=20 and only a single ms2 event triggered during the elution of the parent ion; manual annotation of all the peptides with ratios of 20, removing any peptides with low-quality elution profiles that remained after the previous curation steps. Proteome reactivity values for individual fragments were computed as the percentage of the total quantified cysteine-containing peptides with R values≥4 (defined as liganded cysteines) for each replicate experiment and the final proteome reactivity value was calculated as the mean for all replicate experiments for each fragment from both MDA-MB-231 and Ramos cellular proteomes.
Biological replicates of the same compound and cell-line were averaged if the standard deviation was below 60% of the mean; otherwise the lowest value of the ratio set was taken. For peptides with multiple modified cysteines, the cysteine with the highest number of quantification events was kept and the remaining, redundant peptides were discarded. […] Although the majority (>75% of fragments) were profiled in at least two biological replicates, some data from single replicate MS experiments were included.

For the compound `O=C(CCl)NC1C(O)OC(CO)C(O)C1O` (mixture of isomers) [compound 44], the “isoTOP-ABPP reactivity profile ratio, Q5T1V6_C414” value in assay [1] (in-vitro_ramos_231) is reported as 0.8.
Take `O=C(CCl)Nc1ccccc1C1CCCCCC1` [compound 35]: in assay [1] (in-vitro_ramos), the “isoTOP-ABPP reactivity ratio, Q5T1V6_C414” value is on record as 1.3. Also, the “isoTOP-ABPP reactivity ratio, P50851_C2675” value in assay [2] (in-vitro_ramos) stood at 1.0.
Regarding `O=C(CCl)N1CCOCC1` [compound 22], the “isoTOP-ABPP ratio (reactivity profile), Q5T1V6_C414” value in assay [1] (500 μm in-vitro ramos) is given as 1.3. Also, the “isoTOP-ABPP ratio (reactivity profile), P50851_C2675” value (from here on “isoTOP-ABPP ratio … P50851_C2675”) in assay [2] (500 μm in-vitro ramos) and in assay [2] (500 μm in-vitro ramos_231) was 1.1 throughout.
For the compound `CC(C)CCOCCNC(=O)CCl` [compound 27], in assay [1] (500 μm in-vitro ramos), the “isoTOP-ABPP ratio (reactivity profile), Q5T1V6_C414” value is 1.0. Also, in assay [1] (500 μm in-vitro ramos_231), the “isoTOP-ABPP ratio (reactivity profile), Q5T1V6_C414” value is on record as 0.8. For the same compound, in assay [3] (231), the “isoTOP-ABPP ratio P12268_C140” value is listed as 0.5 and the “isoTOP-ABPP ratio P12268_C331” value came out at 0.7. Further, the “isoTOP-ABPP ratio (reactivity profile), P19447_C342” value in assay [4] (500 μm in-vitro ramos_231) is 0.8 and 1.1.
On to `O=C(CCl)N1CCC(C(O)(c2ccccc2)c2ccccc2)CC1` [compound 20], for which the “isoTOP-ABPP ratio (reactivity profile), Q5T1V6_C414” value in assay [1] (500 μm in-vitro ramos) stood at 3.1. Besides, the “isoTOP-ABPP ratio (reactivity profile), P19447_C342” value in assay [4] (500 μm in-vitro ramos_231) is reported as 2.6.
On to `CCN(CC)c1ccc(S(N)(=O)=O)cc1NC(=O)CCl` [compound 30], for which the “isoTOP-ABPP reactivity ratio, Q5T1V6_C414” value in assay [1] (in-vitro_ramos) is listed as 2.0. Besides, the “isoTOP-ABPP ratio … P50851_C2675” value in assay [2] (500 μm in-vitro ramos) is reported as 0.9. Besides, the “isoTOP-ABPP ratio (reactivity profile), P19447_C342” value in assay [4] (500 μm in-vitro ramos) is listed as 1.3.
`C=CC(=O)N1CCC(c2noc3ccc(F)cc23)CC1` [compound 37]: in assay [1] (in-vitro_ramos), the “isoTOP-ABPP reactivity ratio, Q5T1V6_C414” value amounted to 1.0. Further, the “isoTOP-ABPP reactivity ratio, P50851_C2675” value in assay [2] (in-vitro_ramos) is given as 1.0.
Turning to `N#C/C(=C\c1cc(C(F)(F)F)cc(C(F)(F)F)c1)C(N)=O` [compound 23], the “isoTOP-ABPP ratio (reactivity profile), Q5T1V6_C414” value in assay [1] (500 μm in-vitro ramos) amounted to 1.4. Moreover, the “isoTOP-ABPP ratio … P50851_C2675” value in assay [2] (500 μm in-vitro ramos) was 2.6. Further, the “isoTOP-ABPP ratio (reactivity profile), P19447_C342” value in assay [4] (500 μm in-vitro ramos_231) is 1.6.
In the case of `C=CC(=O)Nc1cc(C)c(Br)cc1C` [compound 40], in assay [1] (in-vitro_ramos), the “isoTOP-ABPP reactivity ratio, Q5T1V6_C414” value turned out to be 1.4.
Turning to `O=C(CCl)NC12CC3CC(CC(C3)C1)C2` [compound 21], the “isoTOP-ABPP ratio (reactivity profile), Q5T1V6_C414” value in assay [1] (500 μm in-vitro ramos_231) was 1.2. Further, the “isoTOP-ABPP ratio … P50851_C2675” value in assay [2] (500 μm in-vitro ramos) worked out at 1.5. Besides, the “isoTOP-ABPP ratio … P50851_C2675” value in assay [2] (500 μm in-vitro ramos_231) stood at 0.9. Also, in assay [3] (231), the “isoTOP-ABPP ratio P12268_C140” value amounted to 0.6 and the “isoTOP-ABPP ratio P12268_C331” value is on record as 0.8. Moreover, the “isoTOP-ABPP ratio (reactivity profile), P19447_C342” value in assay [4] (500 μm in-vitro ramos_231) was found to be 6.1.
In the case of `C=CC(=O)N1CCC(Cc2ccccc2)CC1` [compound 53], the “isoTOP-ABPP reactivity profile ratio, Q5T1V6_C414” value in assay [1] (in-vitro_ramos_231) was 0.8.
`O=C(CCl)N(Cc1ccc(F)cc1)C12CC3CC(CC(C3)C1)C2` [compound 34]: the “isoTOP-ABPP reactivity ratio, Q5T1V6_C414” value in assay [1] (in-vitro_ramos_231) worked out at 0.6. In addition, the “isoTOP-ABPP reactivity ratio, P50851_C2675” value in assay [2] (in-vitro_ramos) is recorded as 1.1.
Consider `COc1ccc2c(c1)CCCN2C(=O)CCl` [compound 2], for which the “R value (DMSO/fragment)” value in assay [1] (500 μM, in vitro, MDA-MB-231) is given as 20.0; in assay [1] (500 μM, invitro, ramos), 20.0; in assay [2] it was 3.0; in assay [4] (500 μM), 20.0. In addition, in assay [3] (231), the “isoTOP-ABPP reactivity P12268_C140 IMPDH2” value was 1.3. Besides, the “isoTOP-ABPP reactivity P12268_C331 IMPDH2” value in assay [3] (231) is reported as 12.1.
Regarding `C=CC(=O)N(Cc1cccnc1)c1ccc(Oc2ccccc2)c(C(F)(F)F)c1` [compound 15], the “isoTOP-ABPP ratio (reactivity profile), Q5T1V6_C414” value in assay [1] (500 μm in-vitro ramos) is on record as 1.0. The “isoTOP-ABPP ratio … P50851_C2675” value in assay [2] (500 μm in-vitro ramos) was determined as 1.6.
Take `O=C(CCl)NCCc1c[nH]c2ccccc12` [compound 13]: in assay [1] (500 μM, invitro, ramos), the “isoTOP-ABPP ratio, Q5T1V6_C414” value worked out at 1.2. For the same compound, in assay [3] (231), the “isoTOP-ABPP ratio P12268_C140” value is 0.7. In addition, in assay [3] (ramos), the “isoTOP-ABPP ratio P12268_C331” value is given as 1.4. Moreover, the “isoTOP-ABPP ratio P19447_C342” value in assay [4] (500 μM, invitro, 231) came to 1.0.
For the compound `Cc1ccc(C=C(C#N)C(=O)NCCN2CCOCC2)cc1` [compound 41], the “isoTOP-ABPP reactivity ratio, Q5T1V6_C414” value in assay [1] (in-vitro_ramos) was 1.0. Also, the “isoTOP-ABPP reactivity ratio, Q5T1V6_C414” value in assay [1] (in-vitro_ramos_231) worked out at 1.2. Also, in assay [2] (in-vitro_ramos_231), the “isoTOP-ABPP reactivity ratio, P50851_C2675” value is listed as 1.9. In addition, in assay [3] (231), the “isoTOP-ABPP ratio P12268_C140” value came to 0.7 and the “isoTOP-ABPP ratio P12268_C331” value is recorded as 0.8. The “isoTOP-ABPP reactivity ratio, P19447_C342” value in assay [4] amounted to 1.1.
Regarding `CC(Br)C(=O)Nc1cc(C(F)(F)F)cc(C(F)(F)F)c1` (centres unmarked) [compound 24], in assay [1] (500 μm in-vitro ramos), the “isoTOP-ABPP ratio (reactivity profile), Q5T1V6_C414” value stood at 1.7. Besides, the “isoTOP-ABPP ratio … P50851_C2675” value in assay [2] (500 μm in-vitro ramos) was determined as 1.0.
In the case of `O=C(CCl)Nc1cc(C(F)(F)F)cc(C(F)(F)F)c1` [compound 3], the “R value (DMSO/fragment)” value was 6.0 in assay [1] (500 μM, invitro, ramos); 5.1 in assay [2]; 12.1 in assay [4] (500 μM).
As for `C=CC(=O)Nc1cc(F)c(N2CCN(C(=O)OC(C)(C)C)CC2)c(F)c1` [compound 38], the “isoTOP-ABPP reactivity ratio, Q5T1V6_C414” value in assay [1] (in-vitro_ramos) stood at 1.8. For the same compound, the “isoTOP-ABPP reactivity ratio, Q5T1V6_C414” value in assay [1] (in-vitro_ramos_231) was found to be 0.9. In addition, in assay [3] (231), the “isoTOP-ABPP ratio P12268_C140” value is 1.2 and the “isoTOP-ABPP ratio P12268_C331” value was found to be 1.3. The “isoTOP-ABPP reactivity ratio, P19447_C342” value in assay [4] came to 1.3.
